Results on two molecules are retold here after publication PMC6469167, “Cholecystokinin-2 Receptor Targeting with Novel C-terminally Stabilized HYNIC-Minigastrin Analogs Radiolabeled with Technetium-99m” (Pharmaceuticals, 2019).

The nature of one data set: physchem. The data set is classed as physicochemical. The protocol: The resistance against degradation of [^99mTc]Tc-HYNIC-MGS5 and [^99mTc]Tc-HYNIC-MGS11 (1000 pmol/mL, n = 2) in human serum was studied for up to 24 h. Furthermore, the radiopeptides were incubated in PBS (1000 pmol/mL, n = 1). At each time point of 1, 2, 4 and 24 h after incubation the intact radiopeptide was assessed by analytical HPLC. Serum samples were precipitated with ACN and centrifuged to collect the supernatant and diluted with water prior to radio-HPLC. […] From each phase a 75 µL sample was taken, the radioactivity measured in a 2480 Wizard^2 automatic gamma-counter (PerkinElmer Life Sciences and Analytical Sciences, Wallac Oy, Turku, Finland) and the distribution of the radiopeptides calculated. The protein binding in human serum (500 pmol/mL, n = 2) was assessed by Sephadex G-50 size-exclusion chromatography (GE Healthcare Illustra, Little Chalfont, UK) for up to 24 h.

Data set [1] deals with A431-CCK2R and A431-mock tumor-xenografts. More on the design: species or system athymic BALB/c nude mice. Particulars: mouse, in vivo. The protocol: Biodistribution studies evaluating the tumor uptake of [^99mTc]Tc-HYNIC-MGS5 and [^99mTc]Tc-HYNIC-MGS11 were performed in 7 week-old female athymic BALB/c nude mice (Charles River, Sulzfeld, Germany). To induce tumor-xenografts, mice were injected subcutaneously with 2 × 10^6 A431-CCK2R (right flank) and A431-mock cells (left flank). The tumor-xenografts were allowed to grow for 11–12 days reaching medium tumor weights of ~0.2 g. Mice were randomly divided into groups of four and injected intravenously via a lateral tail vein with 0.3 MBq of the ^99mTc-labeled HYNIC-analogs (corresponding to ~15 pmol total peptide). The groups of animals were sacrificed at 1 h and 4 h p.i., tumors and other tissues (blood, lung, heart, muscle, bone, spleen, intestine, liver, kidney, stomach and pancreas) were removed, weighed, and the radioactivity measured together with a standard in the gamma counter. Results were expressed as percentage of injected activity per gram tissue (% IA/g) and tumor-to-organ activity ratios were calculated for selected tissues. […] The radioactivity in selected organs (stomach, pancreas, liver, kidneys, A431-CCK2R and A431-mock xenograft) was additionally visualized by autoradiography using a phosphorimager (Cyclone Plus, PerkinElmer Life Sciences and Analytical Sciences, Downers Grove, Il, USA). […]

Take `CCCC[C@@H](C(=O)N[C@@H](CC(=O)O)C(=O)N[C@@H](Cc1cccc2ccccc12)C(N)=O)N(C)C(=O)[C@H](Cc1c[nH]c2ccccc12)NC(=O)CNC(=O)[C@H](Cc1ccc(O)cc1)NC(=O)[C@H](C)NC(=O)[C@@H](CCC(=O)O)NC(=O)c1ccc(NN)nc1` [[^99mTc]Tc-HYNIC-MGS5, metal not drawn]: the logD (usually lipophilicity at a set pH, counting ionised and neutral species) in the data set “physchem” is -2.91 ± 0.06. Further, the tumor-to-kidney ratio in data set [1] is listed as 2.4–3.3.
As for `CCCC[C@@H](C(=O)N[C@@H](CC(=O)O)C(=O)N(C)[C@@H](Cc1cccc2ccccc12)C(N)=O)N(C)C(=O)[C@H](Cc1c[nH]c2ccccc12)NC(=O)CNC(=O)[C@H](Cc1ccc(O)cc1)NC(=O)[C@H](C)NC(=O)[C@@H](CCC(=O)O)NC(=O)c1ccc(NN)nc1` [[^99mTc]Tc-HYNIC-MGS11, metal not drawn], in the data set “physchem”, the logD is -2.84 ± 0.08. Also, the tumor-to-kidney ratio in data set [1] was 2.0–2.6.
